Assay results from US20220273614A1, “INTRAVENOUS VITAMIN C THERAPY PROTOCOL FOR THE TREATMENT OF CANCER” (Riordan Clinic, priority 2019, published 2022).
“Also recorded” adds a separate entry of the source.

Columns and labels:
terminal cancer patients [1] = experiment: Lymphocyte and neutrophil counts and neutrophil-to-lymphocyte ratio in cancer patients on continuous IVC (updated analysis of Riordan trial); format: in vivo, human
Protocol: (§1) The second trial of the treatment of cancer patients by continuous infusions was conducted by Dr. Riordan. In this Phase I clinical trial (hereafter referred to as the Riordan trial), patients were administered continuous infusions using an infusion pump [See for example Ref 1]. In the Riordan Clinic trial, patients were treated by continuous infusion, which was administered over much longer periods of time than bolus intermittent treatments. For most patients, the duration of the continuous infusion was at least 20 hours, as the duration of bolus infusion is from one hour to three hours, depending on the dosage.
(§2) The trial lasted eight weeks and involved terminal patients with poor prognosis. Twenty-four (24) subjects were given continuous IVC at doses between 150 and 710 mg/kg/day (10-50 grams per day). Most of the patients had colon cancer with liver and lung metastasis and three patients had pancreatic or liver cancer. All patients had several chemotherapy/radiation treatments before entering the study.
(§3) Recently, previously unpublished parameters from the clinical study were analyzed, including blood chemistry and blood count parameters that are reportedly related to patient prognosis and degree of inflammation [See for example Ref 2]. This included: absolute neutrophil and lymphocyte counts and the neutrophil-to-lymphocyte ratio; lactate dehydrogenase, an enzyme involved in tumor initiation, metastasis, and recurrence; creatinine, the depletion of which is associated with cachexia; and glucose, as hyperglycemia is common in cancer patients.

[2] = system: patients suffering from cancer; experiment: Pulse-press intravenous vitamin C protocol in cancer patients (Example 3); format: in vivo, human
Protocol: Intravenous vitamin C therapy is given by intermittent, high dose infusion that involves administering high-dose vitamin C (15-100 grams) over a 1-2 hour window and repeated twice weekly (every 2-4 days). The intermittent frequency of high-dose administration is referred to as a PULSED approach or as a PULSE dose.
As an adjunct to high-dose intermittent vitamin C infusions, experiments described herein have led to the developments of a method for administering continuous low to mid doses of vitamin C infusion using an elastomeric pump (non-electric) infusion pump over an 8 to 48 hour window. This method of continuous infusion targets a therapeutic dose anywhere between 4 to 50 grams of vitamin C per infusion window and is referred to as a PRESS approach or a PRESS dose.
The intravenous vitamin C+(IVC+) protocol for the treatment of cancer, and other chronic conditions, described herein combines the pulse approach with a press protocol into a PULSE-PRESS approach whereby vitamin C infusions alternate between a high-dose rapid infusion with a low to mid dose continuous infusion.
This clinical application of the IVC+ Protocol is centered on a 2-day cycle of a rapid PULSE infusion immediately followed by a PRESS continuous infusion at a rate of […] of Vitamin C per hour. Over the two week period, each pulse dose of vitamin C is increased to a therapeutic dose as outlined in the original Riordan IVC Protocol [See for example. Ref 1]. Each week back to back pulse-press doses are given followed by a final pulse dose leading into a rest period. These cyclic rest periods are important wherein they provide recovery time necessary for the patient to assimilate the oxidative stress generated within the body.
The protocol has been used on about six subjects to ascertain safety, feasibility and usability of the pump and in coordinating the process with existing therapies. The types of cancer for these patients varied.

[3] = Plasma ascorbate during continuous IVC infusion (Riordan Phase I trial); format: in vivo, human; details: continuous infusion 150-710 mg/kg/day, cancer patients
Protocol: as §1, §2
The most obvious effect of IVC therapy was to increase patient vitamin C levels. […] In fact, ten out of twenty-four subjects entered the trial with plasma ascorbate concentrations undetectable by the colorimetric ascorbate assay used at that time, with another four having ascorbate concentrations below the normal range (FIG. 1). IVC infusion increased plasma levels to 1 mM. […]

terminal cancer patients [4] = experiment: Blood chemistry (lactate dehydrogenase, glucose) and survival in cancer patients on continuous IVC (updated analysis of Riordan trial); format: in vivo, human
Protocol: as §1, §2, §3

terminal cancer patients [5] = details: 10 g/day continuous IV infusion for 10 days, then oral 10-30 g/day; 100 terminal cancer patients; cited from earlier work
terminal cancer patients [6] = experiment: Safety and adverse events of continuous IVC infusion (Riordan trial); format: in vivo, human
Protocol: as §1
as §2, with “cancer.” for “cancer. All patients had several chemotherapy/radiation treatments before entering the study.”

[7] = a patient suffering from cancer
[8] = rate of increase of LDH before vs after treatment

For O=C1O[C@H]([C@@H](O)CO)C(O)=C1O [IVC, L-ascorbic acid], the “median improvement in the lymphocyte count” value (terminal cancer patients [1]; all patients with lymphocyte levels lower than normal range, continuous IVC) was 22%, the “neutrophil counts, tendency during treatment” value (terminal cancer patients [1]; most of the patients) was “normalization of the neutrophil counts” and the “rate of growth (change) of neutrophil-to-lymphocyte ratio (NLR)” value (terminal cancer patients [1]; one week before treatment vs during treatment, continuous IVC) was “tended to decrease the rate of growth of NLR; also recorded: rate of change was decreased”. For the same compound, the neutrophil counts (terminal cancer patients [1]; patients for whom neutrophil counts are elevated) was “reducing neutrophil counts”, the “lymphocyte and neutrophil counts” value (terminal cancer patients [1]; patients in whom these numbers are below normal) was “increase lymphocyte and neutrophil counts” and the “median improvement in the lymphocyte count” value (terminal cancer patients [1]; patients with severe lymphopenia who completed treatment, continuous IVC) was 69%. The “development of chemo resistance” value [2, 7] was “no signs of the development of chemo resistance”, the efficacy of treatment [2, 7] was “appeared efficacious” and the tolerability [2, 7] was “well-tolerated”. The tolerability ([2]; pulse press protocol, about six subjects, various cancers) was “well tolerated”, the “plasma ascorbate level reached during IVC infusion” value [3] was 1 mM and the median survival time (terminal cancer patients [4]; participants with initial LDH higher than normal range (LDH>245 U/L)) was 95 days. For the same compound, the “blood glucose levels during IVC therapy” value (terminal cancer patients [4]; patients with concentrations higher than normal range) was “decreased”, the “patients with LDH rate of growth decreased” value (terminal cancer patients [4]; [8]) was 38 % of patients and the “patients with LDH rate of growth increased” value (terminal cancer patients [4]; [8]) was 28.6 % of patients. The “patients with LDH rate of growth not changed” value (terminal cancer patients [4]; [8]) was 33.4 % of patients, the median survival time (terminal cancer patients [4]; subjects with normal initial LDH values) was 173 days and the “survival time and quality of life versus patients who had not received IVC” value (terminal cancer patients [5]) was “increased survival time and improved quality of life”. For the same compound, the “Grade 3 adverse events” value (terminal cancer patients [6]; considered possibly related to the ascorbate therapy) was “Most of the Grade 3 events involved hypokalemia”, the “side effects, overall severity” value (terminal cancer patients [6]; continuous IVC infusion trial) was “mostly minor” and the “renal function indicators BUN and creatinine” value (terminal cancer patients [6]; during therapy) was “remained relatively stable”. The uric acid (terminal cancer patients [6]; during therapy) was “decreased during therapy”, the “grade of the most common side effects” value (terminal cancer patients [6]; in vivo) was “generally minor (Grade 1)” and the “dry skin or mouth” value (terminal cancer patients [6]; of 24 subjects) was 7 subjects. It also gave an edema (terminal cancer patients [6]; of 24 subjects) of 7 subjects, a fatigue (terminal cancer patients [6]; of 24 subjects) of 6 subjects and an injector port occlusion (terminal cancer patients [6]; of 24 subjects) of 10 subjects. The nausea (terminal cancer patients [6]; of 24 subjects) was 11 subjects and the “subjects with BUN increases during therapy” value (terminal cancer patients [6]; of 24 subjects) was “four”.
